Measurements published in the NIST ThermoML archive (doi:10.1016/j.jct.2015.10.006).

Conditions: Liquid, Frequency=8 MHz, Pulse-echo method

CCCCO [butan-1-ol]
Conditions	speed of sound [m/s]
253.15 K, 108 kPa	1399.2
253.15 K, 5065 kPa	1423.1
253.15 K, 10086 kPa	1446.2
253.15 K, 15035 kPa	1468.3
253.15 K, 20115 kPa	1490.2
253.15 K, 25062 kPa	1510.8
253.15 K, 30526 kPa	1532.7
273.15 K, 103 kPa	1326.1
273.15 K, 5008 kPa	1351.9
273.15 K, 10094 kPa	1377.2
273.15 K, 15185 kPa	1401.4
273.15 K, 20115 kPa	1424.1
273.15 K, 25088 kPa	1446.1
273.15 K, 30170 kPa	1467.9
293.15 K, 104 kPa	1256.4
293.15 K, 5067 kPa	1284.6
293.15 K, 10144 kPa	1311.7
293.15 K, 15081 kPa	1336.9
293.15 K, 20094 kPa	1361.5
293.15 K, 25087 kPa	1385
293.15 K, 30176 kPa	1408.1
313.15 K, 100 kPa	1189.2
313.15 K, 5050 kPa	1219.2
313.15 K, 10082 kPa	1248.2
313.15 K, 15167 kPa	1276
313.15 K, 20187 kPa	1302.2
313.15 K, 25473 kPa	1328.5
313.15 K, 30162 kPa	1351
333.15 K, 99 kPa	1122.9
333.15 K, 5055 kPa	1155.5
333.15 K, 10099 kPa	1186.8
333.15 K, 15058 kPa	1215.8
333.15 K, 20149 kPa	1244.2
333.15 K, 25167 kPa	1270.8
333.15 K, 30276 kPa	1296.8
353.15 K, 100 kPa	1056.4
353.15 K, 5013 kPa	1091.6
353.15 K, 10032 kPa	1125.3
353.15 K, 15066 kPa	1157.1
353.15 K, 20085 kPa	1187
353.15 K, 25075 kPa	1215.1
353.15 K, 30204 kPa	1242.7

CCO [ethanol]
Conditions	speed of sound [m/s]
253.15 K, 101 kPa	1304.8
253.15 K, 4988 kPa	1329.9
253.15 K, 10126 kPa	1355.1
253.15 K, 15056 kPa	1378.4
253.15 K, 19988 kPa	1400.8
253.15 K, 25051 kPa	1423
253.15 K, 30366 kPa	1445.5
273.15 K, 101 kPa	1230.4
273.15 K, 5095 kPa	1258.5
273.15 K, 10288 kPa	1286.1
273.15 K, 15102 kPa	1310.6
273.15 K, 19986 kPa	1334.4
273.15 K, 25007 kPa	1357.9
273.15 K, 30061 kPa	1380.6
293.15 K, 101 kPa	1159.8
293.15 K, 5052 kPa	1190
293.15 K, 9984 kPa	1218.5
293.15 K, 15097 kPa	1246.4
293.15 K, 20038 kPa	1272.2
293.15 K, 25073 kPa	1297.3
293.15 K, 30034 kPa	1321
313.15 K, 101 kPa	1091.6
313.15 K, 5015 kPa	1124.4
313.15 K, 10081 kPa	1156
313.15 K, 15057 kPa	1185.3
313.15 K, 20137 kPa	1213.6
313.15 K, 25255 kPa	1240.7
313.15 K, 30161 kPa	1265.5
333.15 K, 101 kPa	1024.9
333.15 K, 5287 kPa	1062.5
333.15 K, 10309 kPa	1096.4
333.15 K, 15132 kPa	1126.9
333.15 K, 20140 kPa	1156.7
333.15 K, 25071 kPa	1184.6
333.15 K, 30117 kPa	1211.7
353.15 K, 110 kPa	957.67
353.15 K, 5428 kPa	1000.1
353.15 K, 10327 kPa	1036.1
353.15 K, 15492 kPa	1071.3
353.15 K, 20337 kPa	1102.3
353.15 K, 25296 kPa	1132.1
353.15 K, 29944 kPa	1158.6

CO [methanol]
Conditions	speed of sound [m/s]
253.15 K, 101 kPa	1259.4
253.15 K, 5031 kPa	1283.6
253.15 K, 10064 kPa	1307.3
253.15 K, 15070 kPa	1329.9
253.15 K, 20048 kPa	1351.5
253.15 K, 25130 kPa	1372.8
253.15 K, 30260 kPa	1393.5
273.15 K, 101 kPa	1187.3
273.15 K, 5017 kPa	1213.8
273.15 K, 10158 kPa	1240
273.15 K, 15070 kPa	1264
273.15 K, 20132 kPa	1287.6
273.15 K, 25155 kPa	1310.1
273.15 K, 30074 kPa	1331.4
293.15 K, 101 kPa	1119.1
293.15 K, 5028 kPa	1147.8
293.15 K, 10032 kPa	1175.5
293.15 K, 15145 kPa	1202.4
293.15 K, 20159 kPa	1227.6
293.15 K, 25062 kPa	1251.1
293.15 K, 30276 kPa	1275.1
313.15 K, 101 kPa	1053.2
313.15 K, 5046 kPa	1084.8
313.15 K, 10127 kPa	1115.4
313.15 K, 15085 kPa	1143.5
313.15 K, 19989 kPa	1170
313.15 K, 25090 kPa	1196.1
313.15 K, 30009 kPa	1220.1
333.15 K, 101 kPa	988.92
333.15 K, 5029 kPa	1023.7
333.15 K, 10110 kPa	1056.9
333.15 K, 15215 kPa	1088.2
333.15 K, 20093 kPa	1116.3
333.15 K, 25061 kPa	1143.5
333.15 K, 30122 kPa	1169.9
353.15 K, 197 kPa	925.58
353.15 K, 5097 kPa	963.76
353.15 K, 10106 kPa	999.62
353.15 K, 15143 kPa	1033
353.15 K, 20216 kPa	1064.5
353.15 K, 25221 kPa	1093.7
353.15 K, 30092 kPa	1120.6

CCCO [propan-1-ol]
Conditions	speed of sound [m/s]
253.15 K, 102 kPa	1368
253.15 K, 5133 kPa	1393
253.15 K, 10109 kPa	1416.6
253.15 K, 15198 kPa	1439.9
253.15 K, 20092 kPa	1461.4
253.15 K, 25341 kPa	1483.7
253.15 K, 30423 kPa	1504.6
273.15 K, 101 kPa	1293.5
273.15 K, 5181 kPa	1320.8
273.15 K, 10163 kPa	1346.3
273.15 K, 15287 kPa	1371.4
273.15 K, 20261 kPa	1394.8
273.15 K, 25076 kPa	1416.6
273.15 K, 30164 kPa	1438.9
293.15 K, 105 kPa	1222.5
293.15 K, 5042 kPa	1251.2
293.15 K, 10141 kPa	1279.3
293.15 K, 15272 kPa	1306.3
293.15 K, 20136 kPa	1330.7
293.15 K, 25068 kPa	1354.6
293.15 K, 30231 kPa	1378.5
313.01 K, 30237 kPa	1321.2
313.15 K, 108 kPa	1154.1
313.15 K, 5139 kPa	1185.8
313.15 K, 10136 kPa	1215.4
313.15 K, 15128 kPa	1243.6
313.15 K, 20151 kPa	1270.6
313.15 K, 25136 kPa	1296.1
333.15 K, 101 kPa	1086.8
333.15 K, 5018 kPa	1120.5
333.15 K, 10050 kPa	1152.8
333.15 K, 15186 kPa	1183.9
333.15 K, 20183 kPa	1212.5
333.15 K, 25121 kPa	1239.5
333.15 K, 30028 kPa	1265
353.15 K, 104 kPa	1018.9
353.15 K, 5034 kPa	1056
353.15 K, 10009 kPa	1090.8
353.15 K, 15132 kPa	1124.2
353.15 K, 20099 kPa	1154.8
353.15 K, 25054 kPa	1183.6
353.15 K, 30493 kPa	1213.6
